How the values were obtained:
[1] = system: HDF normal diploid fibroblast cells; test: FACS assay (cell death), HDF; type: cell-based; settings: 50% cell death, 72 h
Protocol: These assays allow determination of both cell death and changes in cell cycle profile in cells following treatment of the compound. The assay is performend as follows: • 1. Cells are incubated in DMEM to which 10% FCS has been added in a humidified incubator at 37° C. and 5% by volume of CO2 in air. The cells are innoculated in 6-well plates at a density of 0.5–5×10^5 cells per well. • 2. The test compound is added in serial dilutions 24–36 h after plating in 0.5% DMSO. The plates are then incubated a further 72 h in the presence of the compound. During this time, cells in control cultures undergo at least three cell divisions. • 3. After incubation, the media is collected and cells are harvested by trypsinization. The cells and media are pooled and pelleted by centrifugation. • 4. The cell pellet is fixed in a final volume of 3 mL of 50% ice cold MeOH and incubated for a minimum of 30 min at −20° C. • 5. The cells are pelleted by centrifugation and resuspended in 0.5 mL PBS containing 1%FCS, […] Propidium Iodide (PI) and 5 mg/mL RNase A and incubated 30 min at 37° C. in the dark. • 6. The samples are analysed by flow cytometry using the relative incorporation of PI as a measure of DNA content of each cell. The % Dead cells is recorded as % of events with less than 2N DNA. […] HDF are normal diploid fibroblast cells. RKO are colon adenocarcinoma cells and MES/SA are ovarian carcinoma cells.

c-fms = molecular target: T1, c-fms (Homo sapiens, UniProt P07333); test: c-fms protein kinase assay (SPA); type: biochemical; settings: Table 7, class symbols; read-out: c-fms kinase inhibition IC50
T1 sequence (P07333 539-972 limits assumed): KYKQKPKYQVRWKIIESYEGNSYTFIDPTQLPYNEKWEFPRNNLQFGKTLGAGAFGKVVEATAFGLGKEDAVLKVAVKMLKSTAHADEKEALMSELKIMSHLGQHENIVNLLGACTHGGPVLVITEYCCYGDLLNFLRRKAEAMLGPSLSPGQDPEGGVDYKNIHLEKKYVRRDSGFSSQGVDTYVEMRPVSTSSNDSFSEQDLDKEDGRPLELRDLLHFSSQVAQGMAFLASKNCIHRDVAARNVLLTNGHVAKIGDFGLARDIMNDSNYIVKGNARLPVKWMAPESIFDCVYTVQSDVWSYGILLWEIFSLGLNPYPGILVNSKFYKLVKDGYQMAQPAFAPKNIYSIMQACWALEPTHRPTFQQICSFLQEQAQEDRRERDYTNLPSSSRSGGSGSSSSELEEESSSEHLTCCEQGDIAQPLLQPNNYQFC
Protocol: c-fms protein kinase assays utilized the peptide substrate, biotin-[…]-NH2, as the phosphoryl group acceptor. The c-fms intracellular domain was expressed from a baculovirus expression system, as an amino-terminal GST fusion protein, and purified to homogeneity using Glutathione agarose from Sigma Chemical Co. Maximum activation of the enzyme was achieved by preactivation at room temperature for 120 min in the presence of 100 μM ATP and 15 mM MgCl2, This enzyme stock was diluted to 150 nM prior to using in the assay. Typically assays were performed in white, opaque, 96-well plates in a 45 ul assay volume including 15 ul 6% DMSO, with or without compounds, 15 ul of the preactivated, diluted enzyme, and 15 ul of a substrate mixture. Reactions contained 50 mM HEPES, pH 7.5, 1.7 μM ATP, 15 mM MgCl2, 3 μM peptide, 2.5 mM DTT, 50 mM NaCl and 0.15 uCi/assay [^32P]ATP. The controls were reactions in the presence (negative controls) or absence (positive controls) of 50 mM EDTA. Reactions were allowed to proceed for 90 min at room temperature. The reaction products were quantified using Scintillation Proximity technolgy. […] Plates were sealed and counted in a Packard Topcount scintillation counter. […]

[2] = system: HDF normal diploid fibroblast cells; test: MTT assay, HDF; type: cell-based; settings: Fibroblast, 72 h
Protocol: Compounds are tested for their ability to inhibit cell proliferation and cell viability. The metabolic conversion of 3-(4,5-dimethylthiazol-2-yl)-2,5-diphenyltetrazolium bromide (MTT, Sigma #M2128) to a reduced form is a commonly used measure of cellular viability. Following is the procedure: Cells are maintained in 75 cm^2 tissue culture flasks until ready for use. The cells are grown and plated for the assay in Dulbecco's modified Eagle's media (DMEM) containing 10% fetal bovine serum. For example, the following cell lines can be used: a) human foreskin fibroblasts (HFF); b) HT29 (human colon carcinoma cell line); c) MDA-MB468 (human breast carcinoma cell line); d) RKO (human colon adenocarcinoma cell line); e) SW620 (human colon carcinoma cell line); f A549 (human lung carcinoma cell line); and g) MIA PACA (human pancreatic carcinoma cell line). Cells are maintained at 37° C. in 10% CO2, 90% humidified air. Cells are plated in 96-well tissue culture plates at the densities listed below. 100 μL of cell suspension is added to each well of the 96-well plate except the top row of the plate which contains no cells and serves as a reference for the spectrophotometer. [table] Cells are incubated overnight in DMEM containing 10% fetal bovine serum at 37° C. in 10% CO2, 90% humidified air prior to dosing. […] Compounds with solubilities of less than 30 μM are dosed at the highest soluble concentration. Stock solutions of compounds are made in 100% dimethyl sulfoxide (DMSO). Stock solutions are diluted in DMEM containing 100 μg/ml gentamicin and 0.3 to 0.6% DMSO at the twice the highest concentration to be placed on the cells. If compounds have been dissolved in DMSO the final concentration of DMSO on the cells is kept below 0.3%. Three-fold serial dilutions are performed on each compound to prepare 10 concentrations of the compound for dosing. 100 μl of diluted compound is added to the 100 μl of media currently on the dish. For each concentration of compound, 2–4 replicate wells are prepared. Cells are returned to incubator and allowed to proliferate in the presence of compound for 72 h before addition of MTT. […] After 4 h incubation the media, compound and MTT mixture is aspirated from the plates and 100 μl of 100% DMSO is added to each well in addition to 25 μl of Sorenson's Buffer (0.1M glycine, 0.1M NaCl, pH 10.5). Quantitation of metabolic reduction of MTT in each plate is performed by reading optical density at 570 nm wavelength on a Molecular Devices UVmax microplate reader. […] HDF are normal diploid fibroblast cells. RKO are colon adenocarcinoma cells and MES/SA are ovarian carcinoma cells.

CDK2 = CDK2 (Homo sapiens, UniProt P24941); test: CDK2 substrate phosphorylation assay; type: biochemical
Protocol: CDK1 and CDK2 were both expressed utilizing a baculovirus expression system and were partially purified to comprise 20–80% of total protein, with no detectable competing reactions present. […] Reactions were terminated with 0.2–2 volumes of either 20% acetic acid or 50–100 mM EDTA buffered to pH 7 (substrate consumption <20%). The buffer employed in enzyme assays was either 30 mM HEPES 7.4 containing 0.15 M NaCl and 5% DMSO, the buffer 50 mM MOPS 7.0 containing 0.15 M NaCl and 5% DMSO, or the buffer 100 mM HEPES pH 7.5 containing 0.1 mg/mL BSA and 5% DMSO. Inhibitors were diluted in 100% DMSO prior to addition into the assay. Detection of peptide phosphorylation was accomplished by scintillation counting following either collection of peptide onto phosphocellulose filters (for reactions stopped with acetic acid), collection of peptide in wells of 96 well plates coated with Streptavidin (Pierce) (reactions were stopped with EDTA), or addition of Avidin coated Scintillant impregnated beads (Scintillation Proximity Assays from Amersham, reactions were stopped with EDTA).
CDK1 and CDK2 were both expressed utilizing a baculovirus expression system and were partially purified to comprise 20–80% of total protein, with no detectable competing reactions present. […]

[3] = system: etoposide-induced alopecia; test: Protection from chemotherapy-induced alopecia in rat pups; type: in vivo, Sprague-Dawley rat; settings: 6 mg/kg etoposide intraperitoneally
Protocol: Protection from chemotherapy-induced alopecia is determined in 7 day old Sprague-Dawley rat pups. The treatment is carried out by administering the compounds topically to the head of the animal in doses from 0.01 to 10 mg/kg 2 h before and 2 h after the administration of a single dose of 6 mg/kg etoposide intraperitoneally. Six days after dosing, animals are scored visually for hair loss using a grading scale from 1 (complete hair loss) to 4 (no apparent hair loss). In this assay, the prior treatment of the animal with the compound of this invention results in a marked reduction in the severity of alopecia compared to vehicle treated controls. Under the above described conditions of treatment, the compounds of the present invention also protect against other toxicities of etoposide. […] Animals treated with the compounds of the present invention in combination with etoposide, in the schedule indicated above, gain weight normally and even exceed the body weight of control, untreated animals.

Compound	IC50 [1] [µM]	IC50 [2] [µM]	other results
CCC(C)Cc1cccc2c1C(=NNc1ccc(S(N)(=O)=O)cc1)C(=O)N2 (stereo not drawn) [Example 11]	> 5		
O=C1Nc2ccc3ncccc3c2/C1=C/Nc1ccc(CCO)cc1 [Example 32]			IC50 (c-fms): > 0.1 µM
CN(C)S(=O)(=O)c1ccc(NC=C2C(=O)Nc3ccc(-c4cnco4)cc32)cc1 [Example 35]	> 5	> 5	
CS(=O)(=O)Cc1ccc(NC=C2C(=O)Nc3ccc4ncsc4c32)cc1 [Example 76, 8-(4-Methylsulfonylmethyl-phenylamino-methylene)-6,8-dihydro-1-thia-3,6-diaza-as-indacen-7-one]	> 5	> 5	
CC(C)(CO)CNS(=O)(=O)c1ccc(NC=C2C(=O)Nc3ccc4ncsc4c32)cc1 [Example 77, N-(3-Hydroxy-2,2-dimethyl-propyl)4-[(7-oxo-6,7-dihydro-1-thia-3,6-diaza-as-indacen-8-ylidenemethyl)-amino]-benzenesulfonamide]	> 5	> 5	
CNS(=O)(=O)Cc1ccc(NN=C2C(=O)Nc3cc(C)c(O)c(C)c32)cc1 [Example 99]	> 5	0.6 to 1	IC50 (CDK2): 0.051 to 0.1 µM
O=C1Nc2ccc3ncsc3c2C1=CNc1ccc2nn[nH]c2c1 [Example 101, 8-(3H-Benzotriazol-5-ylaminomethylene)-6,8-dihydro-1-thia-3,6-diaza-as-indacene-7-one]	> 5	> 5	
CC(C)COC(=O)c1ccc2c(c1)C(=CNc1ccc(S(N)(=O)=O)cc1)C(=O)N2 [Example 103, 2-Oxo-3-(4-sulfamoyl-phenylamino-methylene)-2,3-dihydro-1H-indole-5-carboxylic acid isobutyl ester]		1.1 to 5	
COc1cc([C@@H]2c3cc4c(cc3[C@@H](O[C@@H]3O[C@@H]5CO[C@@H](C)O[C@H]5[C@H](O)[C@H]3O)[C@H]3COC(=O)[C@H]23)OCO4)cc(OC)c1O [etoposide]			body weight gain, etoposide alone compared to untreated animals [3]: dramatic lack of weight gain

Reference: patent US7105529B2, “Substituted oxindole derivatives as protein tyrosine and as protein serine/threonine kinase inhibitors and compositions and methods of treating chemotherapy and radiation therapy side effects” (SmithKline Beecham Corporation, priority 1997, dated 2006)
